The text below walks through data of US11149033B2, “Heteroaryl compound, enantiomer, diastereomer or pharmaceutically acceptable salt thereof, and antiviral composition containing same as active ingredient” (priority 2016, dated 2021).

Like-named read-outs stand apart in the source and are kept apart here.

The subject of one data set is B/Florida/04/2006. The data set is described as follows: Antiviral activity (drug efficacy evaluation by concentration) against B/Florida/04/2006. The following applies: read-out: EC50 B/Florida/04/2006, B/Florida/04/2006. It is filed as cell-based, B type influenza virus.
The test system of data set [1] is A/California/07/2009 (H1N1). Kind of data set: Antiviral activity (drug efficacy evaluation by concentration) against A/California/07/2009 (H1N1). Type of data set: cell-based, A type influenza virus. Particulars: A/California/07/2009 (H1N1); read-out: EC50 A/California/07/2009 (H1N1).
In the next data set the test system is A/Perth/16/2009 (H3N2). Kind of data set: Antiviral activity (drug efficacy evaluation by concentration) against A/Perth/16/2009 (H3N2). The following applies: A/Perth/16/2009 (H3N2); read-out: EC50 A/Perth/16/2009 (H3N2). Type of data set: cell-based, A type influenza virus.
A further data set has as its system MDCK cells. Kind of data set: Cytotoxicity (CC50) in the influenza infection assay.

In the case of `Cc1nn(Cc2nnc(SCc3ccccc3-c3ccncc3)o2)c(C)c1Br` [Compound 15, 2-((4-bromo-3,5-dimethyl-1H-pyrazol-1-yl)methyl)-5-((2-(pyridin-4-yl)benzyl)thio)-1,3,4-oxadiazole], the results for the EC50 (in the data set with B/Florida/04/2006; in data set [1]; in the data set with A/Perth/16/2009 (H3N2)) were 8.18 µM, 8.9 µM and 11.6 µM, respectively. Besides, the CC50 in the data set on MDCK cells (read-out: CC50 A/California/07/2009 (H1N1), cytotoxicity in the A/California/07/2009 (H1N1) assay) is more than 50 µM; in the data set on MDCK cells (read-out: CC50 A/Perth/16/2009 (H3N2), cytotoxicity in the A/Perth/16/2009 (H3N2) assay), more than 50 µM; in the data set with MDCK cells (read-out: CC50 B/Florida/04/2006, cytotoxicity in the B/Florida/04/2006 assay) it was more than 50 µM.
